Reference: patent publication US20250288584A1, “COMBINATIONS COMPRISING POSITIVE ALLOSTERIC MODULATORS OR ORTHOSTERIC AGONISTS OF METABOTROPIC GLUTAMATERGIC RECEPTOR SUBTYPE 2 AND THEIR USE” (JANSSEN PHARMACEUTICA NV, priority 2014, published 2025)
Several values for one entry are separate records, joined by “and”; a condition that tells them apart may be missing. Equal values may be shown once.

Key:
[1] = test system: paroxysmal dystonia; conditions: dt^sz mutant hamster; cited from earlier work
[2] = test system: 6 Hz (32 mA) psychomotor seizures; experiment: 6 Hz psychomotor seizure test, 32 mA (incl. TPE determination); format: in vivo, mice; conditions: at TPE; for ED50: Mus musculus, sc, read-out: ED50 (95% CI) 32 mA
Description: Test compounds were administered using an optimal fluid volume to body fluid ratio. Test compounds were administered to mice in a volume of 0.01 mL/g of body weight (White H. S., et al., General Principles: Experimental selection, quantification, and evaluation of antiepileptic drugs, in Antiepileptic Drugs, Fourth Edition, […], and B. S. Meldrum, Editors. 1995, Raven Press, Ltd.: New York, pp. 99-110). For subcutaneous (s.c.) administration, the test compounds were administered into a loose fold of skin along the back of the animal except compound 6-b, which was administered orally (p.o). […] The animals were maintained on an adequate diet (Prolab RMH 3000) and allowed free access to food and water, except during the short time they were removed from their cage for testing. Animals newly received in the laboratory were allowed sufficient time to correct for possible food and water restriction incurred during transit before being employed in testing. All mice were housed in plastic cages in specially constructed rooms with controlled humidity, exchange of air and controlled lighting (12 hours on-12 hours off). The animals were housed, fed, and handled in a manner consistent with the recommendations in the National Council Publication, “Guide for the Care and Use of Laboratory Animals”. In the determination of an ED50 or TD50 for each test compound, the first dose administered is usually the same dose as that used in a successful TPE determination. […] Third and fourth doses were selected to produce an evenly spaced dose response line. […] TPE was determined using the 6 Hz (32 mA) assay. […] The 6 Hz seizure test is used as a model of pharmacoresistant limbic seizures. […] Focal seizures were induced in mice via corneal stimulation (6 Hz, 0.2 msec rectangular pulse, 3 sec duration; Barton et al. 2001). Mice were tested at either 32 mA or 44 mA. […] The seizures that arise from corneal stimulation in this assay are characterized by a minimal clonic phase followed by stereotyped automatistic behaviors including stun, forelimb clonus, twitching of the vibrissae, and Straub-tail. Animals not displaying these behaviors were considered protected.

[3] = test system: 6 Hz (44 mA) psychomotor seizures; experiment: 6 Hz psychomotor seizure test, 44 mA (alone, combination with LEV, isobolographic study); format: in vivo, mice; conditions: for ED50: at TPE, read-out: ED50 (95% CI) 44 mA
Description: Test compounds were administered using an optimal fluid volume to body fluid ratio. Test compounds were administered to mice in a volume of 0.01 mL/g of body weight (White H. S., et al., General Principles: Experimental selection, quantification, and evaluation of antiepileptic drugs, in Antiepileptic Drugs, Fourth Edition, […], and B. S. Meldrum, Editors. 1995, Raven Press, Ltd.: New York, pp. 99-110). For subcutaneous (s.c.) administration, the test compounds were administered into a loose fold of skin along the back of the animal except compound 6-b, which was administered orally (p.o). […] The animals were maintained on an adequate diet (Prolab RMH 3000) and allowed free access to food and water, except during the short time they were removed from their cage for testing. Animals newly received in the laboratory were allowed sufficient time to correct for possible food and water restriction incurred during transit before being employed in testing. All mice were housed in plastic cages in specially constructed rooms with controlled humidity, exchange of air and controlled lighting (12 hours on-12 hours off). The animals were housed, fed, and handled in a manner consistent with the recommendations in the National Council Publication, “Guide for the Care and Use of Laboratory Animals”. In the determination of an ED50 or TD50 for each test compound, the first dose administered is usually the same dose as that used in a successful TPE determination. […] Third and fourth doses were selected to produce an evenly spaced dose response line. […] The 6 Hz seizure test is used as a model of pharmacoresistant limbic seizures. […] Focal seizures were induced in mice via corneal stimulation (6 Hz, 0.2 msec rectangular pulse, 3 sec duration; Barton et al. 2001). Mice were tested at either 32 mA or 44 mA. […] The seizures that arise from corneal stimulation in this assay are characterized by a minimal clonic phase followed by stereotyped automatistic behaviors including stun, forelimb clonus, twitching of the vibrissae, and Straub-tail. Animals not displaying these behaviors were considered protected. […] In addition to recording the efficacy and toxicity data for these compounds alone or in combination, both plasma and brain samples were collected from each of the groups for pharmacokinetic/pharmacokinetic analysis. No pharmacokinetic interaction was observed based on compound levels in the plasma and brain samples (data not shown). Isobolographic studies were conducted for the combined administration of Co. […] Studies were conducted according to previously described methods (Madsen et al. 2011). Initial ED50 values were determined for both Co. […] Co. […] Doses used were proportional to calculated ED50 values. […] Experimental treatment doses (see Table 4) were based on theoretical values and adjusted according to observed effects. Experimentally determined ED50 (+SEM) values for each fixed dose-ratio combination were compared to the theoretical values (t-test) for statistical purposes. […] Subsequently, the experimental combined doses were determined for the same paradigms in the 6 Hz seizure test (Table 4 below).

[4] = test system: corneal kindled seizures; experiment: Mouse corneal kindling model; format: in vivo, mice; conditions: Racine score 0-5
Description: After the mice reached a stable kindled state, the test compound or vehicle was administered and, at the previously determined TPE, each animal was given the electrical stimulus indicated above. […] One dose of LEV and two doses of Co.

[5] = Plasma and brain levels (pK/pD analysis); format: in vivo, mice; conditions: for concentration at 0.25 h: mouse, subcutaneous
Description: In various tests, animals were sacrificed following testing, and trunk blood and/or brain tissue (whole brains) was collected for quantification of drug levels. Immediately after testing, animals were decapitated and trunk blood was collected into a BD Vacutainer® tube containing K2EDTA and chilled on ice until centrifugation. Following centrifugation (13000-18000 rpm, 5-7 min), the plasma was removed and transferred to a labeled microcentrifuge tube and stored at −80° C. For brain tissue collection, brains were removed immediately following decapitation and flash frozen. The frozen sample was placed in a labeled centrifuge tube and stored at −80° C.
In addition to recording the efficacy and toxicity data for these compounds alone or in combination, both plasma and brain samples were collected from each of the groups for pharmacokinetic/pharmacokinetic analysis.

[6] = biological target: T1, human mGlu2 receptor (Homo sapiens, UniProt Q14416); experiment: [35S]GTPγS binding assay, mGluR2 PAM; format: biochemical; conditions: maximal % effect relative to control glutamate response; EC20 glutamate; read-out: GTPγS-hmGluR2 PAM Emax
T1 construct: expressed in transfected cells; host or cells: CHO cells
Description: The [^35S]GTPγS binding assay is a functional membrane-based assay used to study G-protein coupled receptor (GPCR) function whereby incorporation of a non-hydrolysable form of GTP, [^35S]GTPγS (guanosine 5′-triphosphate, labelled with […] ^35S), is measured.
Cells were then collected by scraping in PBS and cell suspension was centrifuged (10 min at 4000 RPM in benchtop centrifuge). Supernatant was discarded and pellet gently resuspended in 50 mM Tris-HCl, pH 7.4 by mixing with a vortex and pipetting up and down. The suspension was centrifuged at 16,000 RPM (Sorvall RC-5C plus rotor SS-34) for 10 minutes and the supernatant discarded. The pellet was homogenized in 5 mM Tris-HCl, pH 7.4 using an ultra-turrax homogenizer and centrifuged again (18,000 RPM, 20 min, 4° C.). The final pellet was resuspended in 50 mM Tris-HCl, pH 7.4 and stored at-80° C. in appropriate aliquots before use. Protein concentration was determined by the Bradford method (Bio-Rad, USA) with bovine serum albumin as standard.
Measurement of mGluR2 positive allosteric modulatory activity of test compounds was performed as follows. Test compounds and glutamate were diluted in assay buffer containing 10 mM HEPES acid, 10 mM HEPES salt, pH 7.4, 100 mM NaCl, 3 mM MgCl2 and 10 μM GDP. Human mGlu2 receptor-containing membranes were thawed on ice and diluted in assay buffer supplemented with 14 μg/ml saponin. Membranes were pre-incubated with compound alone or together with a predefined (˜EC20) concentration of glutamate (PAM assay) for 30 min at 30° C. After addition of [^35S] GTPγS (f.c. 0.1 nM), assay mixtures were shaken briefly and further incubated to allow [^35S] GTPγS incorporation on activation (30 minutes, 30° C.). Final assay mixtures contained 7 μg of membrane protein in 10 mM HEPES acid, 10 mM HEPES salt, pH 7.4, 100 mM NaCl, 3 mM MgCl2, 10 µM GDP and 2 μg/ml saponin. Total reaction volume was 200 μl. Reactions were terminated by rapid filtration through Unifilter-96 GF/B plates (Perkin Elmer, Massachusetts, USA) using a 96-well filtermate universal harvester. Filters were washed 6 times with ice-cold 10 mM NaH2PO4/10 mM Na2HPO4, pH 7.4. Filters were then air-dried, and 40 μl of liquid scintillation cocktail (Microscint-O) was added to each well. Membrane-bound radioactivity was counted in a Microplate Scintillation and Luminescence Counter from Perkin Elmer.
The concentration-response curves of representative compounds of the present invention-obtained in the presence of EC20 of mGluR2 agonist glutamate to determine positive allosteric modulation (PAM)—were generated using the Lexis software interface (developed at J&J). Data were calculated as % of the control glutamate response, defined as the maximal response that is generated upon addition of glutamate alone. Sigmoid concentration-response curves plotting these percentages versus the log concentration of the test compound were analyzed using non-linear regression analysis. The concentration producing half-maximal effect is then calculated as EC50. The pEC50 values below were calculated as the −log EC50, when the EC50 is expressed in M. Emax is defined as relative maximal effect (i.e. maximal % effect relative to the control glutamate response).

[7] = test system: MES seizures; conditions: in vivo; cited from earlier work
[8] = test system: 6 Hz seizures; conditions: dose-dependent manner; cited from earlier work
[9] = Mus musculus, sc, compound alone
[10] = Co. No. 2 3 mg/kg combined with LEV 10 mg/kg, 6 Hz 44 mA

T1 sequence (Q14416 19-872): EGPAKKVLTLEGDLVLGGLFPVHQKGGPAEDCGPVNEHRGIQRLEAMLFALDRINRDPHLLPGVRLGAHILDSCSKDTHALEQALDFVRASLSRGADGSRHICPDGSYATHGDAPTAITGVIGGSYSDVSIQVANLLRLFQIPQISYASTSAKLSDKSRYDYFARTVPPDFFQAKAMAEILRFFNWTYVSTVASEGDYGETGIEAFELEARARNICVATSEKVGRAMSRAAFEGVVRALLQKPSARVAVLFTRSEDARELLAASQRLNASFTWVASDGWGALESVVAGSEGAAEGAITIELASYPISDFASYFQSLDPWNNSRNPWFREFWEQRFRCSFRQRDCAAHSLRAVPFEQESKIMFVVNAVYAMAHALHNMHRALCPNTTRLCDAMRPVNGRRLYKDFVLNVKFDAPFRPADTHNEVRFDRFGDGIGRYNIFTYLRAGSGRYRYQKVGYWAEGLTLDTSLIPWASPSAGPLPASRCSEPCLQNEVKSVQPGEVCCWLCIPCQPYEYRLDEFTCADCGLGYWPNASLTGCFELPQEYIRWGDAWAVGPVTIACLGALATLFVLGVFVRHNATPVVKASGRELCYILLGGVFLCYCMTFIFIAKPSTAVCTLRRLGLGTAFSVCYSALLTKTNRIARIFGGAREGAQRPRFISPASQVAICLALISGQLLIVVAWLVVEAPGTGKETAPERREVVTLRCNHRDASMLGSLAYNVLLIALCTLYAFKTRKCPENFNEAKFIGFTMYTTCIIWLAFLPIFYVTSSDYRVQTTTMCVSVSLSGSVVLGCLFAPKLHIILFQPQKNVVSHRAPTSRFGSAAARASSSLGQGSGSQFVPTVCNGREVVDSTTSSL

Which “effect on severity of dystonia” value [1] does the source give for CCC[C@@H]1CC(=O)N([C@@H](CC)C(N)=O)C1 [Brivaracetam, (2S)-2-[(4R)-oxo-4-propyl-pyrrolidin-1-yl]butanamide] here?
Its value is “reduce the severity of dystonia”.

Which results are given for FC(F)(F)c1c(N2CCC(c3ccccc3)CC2)ccn2c(CC3CC3)nnc12 [Co. No. 2]?
ED50 [2]: 3.83 mg/kg; responders at 3 mg/kg ([3]; Mus musculus, sc, 0.25 h, 3 mg/kg s.c., 0.25 h, read-out: # protected/# tested (converted)): 16.7%; ED50 [3, 9]: 5.89 mg/kg; Maximum Effect (% Protection) ([3]; compound alone): 100%; Seizure score (dose) Corneal kindling ([4]; 40 mg/kg s.c.): 3.4; Brain (ng/ml) Co. No. 2, individual mice [5, 10]: 1120 ng/mL and 1140 ng/mL and 1540 ng/mL and 1020 ng/mL; Plasma (ng/ml) Co. No. 2, individual mice [5, 10]: 4700 ng/ml and 467 ng/ml and AQL and (>500) ng/ml and 2080 ng/ml and 1830 ng/ml and 386 ng/ml; concentration at 0.25 h ([5]; brain, 3 mg/kg, Mean Brain Level (non-combination) Co. No. 2, Co. No. 2 3 mg/kg alone): 1.11 µg/mL; concentration at 0.25 h ([5]; brain, Brain (ng/ml) Co. No. 2, individual mice, Co. No. 2 3 mg/kg combined with LEV 10 mg/kg, 6 Hz 44 mA): 1.31 µg/mL; concentration at 0.25 h ([5]; brain, Mean Brain Level Co. No. 2, Co. No. 2 3 mg/kg combined with LEV 10 mg/kg): 1.23 µg/mL; concentration at 0.25 h ([5]; plasma, 3 mg/kg, Mean Plasma Level (non-combination) Co. No. 2, Co. No. 2 3 mg/kg alone): 1.29 µg/mL; concentration at 0.25 h ([5]; plasma, Mean Plasma Level Co. No. 2, Co. No. 2 3 mg/kg combined with LEV 10 mg/kg): 1.89 µg/mL

What does the source list for FC(F)(F)Cc1nnc2c(Cl)c(N3CCC(F)(c4ccccc4)CC3)ccn12 [Co. No. 11]?
Emax [6]: 310%; ED50 [2]: 4.77 mg/kg; ED50 (95% CI) 32 mA ([2]; s.c.): 9.41 (1.53-15.1) mg/kg; ED50 [3, 9]: 31.5 mg/kg; Seizure score (dose) Corneal kindling ([4]; 100 mg/kg s.c.): 2.8

What does the source list for N[C@@]1(C(=O)O)CO[C@H]2[C@H](C(=O)O)[C@H]21 [LY379268]?
activity in maximal electroshock (MES) seizure test [7]: ineffective; activity in the 6 Hz model [8]: effective

With N[C@@]1(C(=O)O)CS[C@H]2[C@H](C(=O)O)[C@H]21 [LY389795] as the molecule, how does the “activity in maximal electroshock (MES) seizure test” value [7] read?
The value was “ineffective”.

What about the “activity in the 6 Hz model” value [8] of the same molecule?
The value was “effective”.

With CC[C@@H](C(N)=O)N1C[C@H](C=C(F)F)CC1=O [Seletracetam, (2S)-2-[(4S)-4-(2,2,-difluorovinyl)-2-oxo-pyrrolidin-1-yl]butanamide] as the molecule, how does the “effect on severity of dystonia” value [1] read?
Its value is “reduce the severity of dystonia”.
